Results taken from patent US9458141B2, “Low molecular weight thyroid stimulating hormone receptor (TSHR) agonists” (The United States of America, as represented by the …, priority 2008, dated 2016).
Like-named read-outs stand apart in the source and are kept apart here.

Target: T1, human TSHR (Homo sapiens, UniProt P16473)
T1 construct: expressed in transfected cells
Test: Homogeneous Time Resolved Fluorescence (HTRF) cAMP assay, TSHR cell line
Type: cell-based
Settings: for AC50: TSHR cell line, 30 minute incubation; for Emax: read-out: Maximum Activity compared to TSH, 100% activity = response of 30 mU/ml TSH, 0% = DMSO control; for Maximum Activity compared to TSH: 100% activity = response of 30 mU/ml TSH, 0% = DMSO control, in %; call rule not given here

T1 sequence (P16473 21-764): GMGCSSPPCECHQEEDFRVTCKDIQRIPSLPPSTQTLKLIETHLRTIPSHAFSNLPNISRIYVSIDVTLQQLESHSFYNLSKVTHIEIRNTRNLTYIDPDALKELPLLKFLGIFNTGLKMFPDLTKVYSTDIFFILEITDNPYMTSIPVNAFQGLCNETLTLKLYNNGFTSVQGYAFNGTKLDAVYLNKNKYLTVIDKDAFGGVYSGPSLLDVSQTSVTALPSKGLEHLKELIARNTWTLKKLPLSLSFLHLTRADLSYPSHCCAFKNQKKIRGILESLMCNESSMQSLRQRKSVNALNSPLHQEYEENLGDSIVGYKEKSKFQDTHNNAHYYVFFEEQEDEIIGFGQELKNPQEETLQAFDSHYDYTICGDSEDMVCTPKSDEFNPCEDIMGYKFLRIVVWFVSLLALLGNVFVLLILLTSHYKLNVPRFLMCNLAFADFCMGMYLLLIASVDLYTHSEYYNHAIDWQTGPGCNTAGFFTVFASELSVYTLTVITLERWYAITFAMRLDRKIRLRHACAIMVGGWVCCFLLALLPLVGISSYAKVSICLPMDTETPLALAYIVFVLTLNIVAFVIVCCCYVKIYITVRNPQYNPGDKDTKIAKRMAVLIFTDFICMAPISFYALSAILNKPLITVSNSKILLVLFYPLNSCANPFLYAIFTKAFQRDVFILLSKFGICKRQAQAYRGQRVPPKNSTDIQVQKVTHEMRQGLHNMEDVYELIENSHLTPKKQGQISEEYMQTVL

| Compound | AC50 (HTRF cAMP) | AC50 (HTRF cAMP, read-out: AC50) | Maximum Activity compared to TSH | further results |
| --- | --- | --- | --- | --- |
| CC(C)c1ccc(C2C3=C(CC(c4ccco4)CC3=O)Nc3nc(C(F)(F)F)nn32)cc1 (stereo not shown) [Structure 268] | inactive |  |  |  |
| COc1ccc(-c2nc3ccccc3c(=O)n2Cc2ccco2)cc1COc1ccc(NC(C)=O)cc1 [Structure 33] |  | 17.8 µM |  | Emax: 169% |
| COc1ccc(C2Nc3ccccc3C(=O)N2Cc2ccccc2C(F)(F)F)cc1COc1ccc(NC(C)=O)cc1 (stereo not shown) [Structure 265] |  | 6.31 µM | 24.00 |  |
| COc1ccc(C2Nc3ccccc3C(=O)N2Cc2cccc(-c3ccccc3)c2)cc1COc1ccc(NC(C)=O)cc1 (stereo not shown) [Structure 79] |  | 1.78 µM | 61.52 |  |
| COc1ccc(C2Nc3ccccc3C(=O)N2CCO)cc1COc1ccc(NC(C)=O)cc1 (stereo not shown) [Structure 221] | inactive |  |  |  |
| COc1ccc(CN(Cc2ccccc2)C(=O)c2ccc(NC(C)=O)cc2)cc1COc1ccc(NC(C)=O)cc1 [Structure 166] | inactive |  |  |  |
| COc1ccc(C2Nc3ccc(NC(C)=O)cc3C(=O)N2Cc2ccccc2)cc1COc1ccc(NC(C)=O)cc1 (stereo not shown) [Structure 105] |  | 17.8 µM |  | Emax: 126% |
| COc1ccc(C2Nc3ccccc3C(=O)N2Cc2ccc(CNC(=O)CO)cc2)cc1COc1ccc(NC(C)=O)cc1 (stereo not shown) [Structure 128] |  | 39.8 µM | 69.13 |  |
| O=C1CC(c2ccco2)CC2=C1C(c1cccnc1)n1nc(C(F)(F)F)nc1N2 (stereo not shown) [Structure 171] | inactive |  |  |  |
| COc1ccc(C2Nc3ccccc3C(=O)N2Cc2ccco2)cc1COc1ccc(NC(C)=O)cc1 (stereo not shown) [Structure 23] |  | 15.8 µM | 165.50 |  |
| COc1ccc(C2Nc3ccccc3C(=O)N2CCO)cc1COc1ccc(NC(C)=O)cc1 (stereo not shown) [Structure 209] | inactive |  |  |  |
| COc1ccc(C2Nc3ccccc3C(=O)N2Cc2ccc(C(F)(F)F)cc2)cc1COc1ccc(NC(C)=O)cc1 (stereo not shown) [Structure 234] |  | 8.91 µM | 18.00 |  |
| COc1ccc(C2Nc3ccccc3C(=O)N2Cc2cccnc2)cc1COc1ccc(NC(C)=O)cc1 (stereo not shown) [Structure 111] |  | 35.5 µM | 98.46 |  |
| COc1ccc(C2Nc3ccccc3C(=O)N2Cc2ccco2)cc1 (stereo not shown) [Structure 156] | inactive |  |  |  |
| COc1ccc2c(c1OC)C(=O)N1c3ccccc3C(=O)N(Cc3ccco3)C21 (stereo not shown) [Structure 217] | inactive |  |  |  |
| COc1ccc(C2Nc3ccccc3C(=O)N2CCc2ccc(Cl)cc2Cl)cc1COc1ccc(NC(C)=O)cc1 (stereo not shown) [Structure 224] | inactive |  |  |  |
| COc1ccc(C2Nc3ccccc3C(=O)N2Cc2ccco2)cc1COc1ccc(NC(C)=O)cc1 (stereo not shown) [Structure 9] |  | 17.8 µM | 115.62 |  |
| COc1ccc(C2Nc3ccccc3C(=O)N2CCCN(C)C)cc1COc1ccc(NC(C)=O)cc1 (stereo not shown) [Structure 146] | inactive |  |  |  |
| COc1ccc(CN(Cc2ccccc2)C(=O)c2ccccc2O)cc1 [Structure 271] | inactive |  |  |  |
| COc1ccc(C2Nc3ccccc3C(=O)N2Cc2ccco2)cc1COc1c(C)cccc1C (stereo not shown) [Structure 182] | inactive |  |  |  |
| COc1ccc(CN(Cc2ccccc2)C(=O)c2ccccc2)cc1COc1ccc(NC(C)=O)cc1 [Structure 58] |  | 8.91 µM | 93.09 |  |

| Compound | AC50 (HTRF cAMP) | AC50 (HTRF cAMP, read-out: AC50) | Maximum Activity compared to TSH | further results |
| --- | --- | --- | --- | --- |
| COc1ccc(C2Nc3ccc(Cl)cc3C(=O)N2Cc2ccccc2)cc1COc1ccc(NC(C)=O)cc1 (stereo not shown) [Structure 123] |  | 14.1 µM | 83.18 |  |
| COc1ccc(-c2nc3ccccc3c(=O)n2Cc2ccccc2)cc1CNc1ccc(CC(C)=O)cc1 [Structure 82] |  | 25.1 µM |  | Emax: 59% |
| COc1ccc(C2Nc3ccccc3C(=O)N2Cc2ccccc2)cc1COc1ccc(NC(C)=O)cc1 (single isomer, unassigned) [Structure 37] |  |  | 104.22 | AC50 (AC50, HTRF cAMP): 8.91 µM |
| COc1ccc(C2Cc3ccccc3C(=O)N2Cc2ccco2)cc1COc1ccc(NC(C)=O)cc1 (stereo not shown) [Structure 29] |  | 17.8 µM |  | Emax: 139% |
| COc1ccc(-c2nc3ccccc3c(=O)n2Cc2ccccc2)cc1COc1ccc(NC(C)=O)cc1 [Structure 97] |  | 15.8 µM | 132.18 |  |
| COc1ccc(C(=O)N(Cc2ccccc2)Cc2ccc(OC)c(COc3ccc(NC(C)=O)cc3)c2)c(O)c1 [Structure 168] | inactive |  |  |  |
| COc1ccc(C2Nc3ccccc3C(=O)N2Cc2ccccc2)cc1COc1cccc(Cl)c1 (stereo not shown) [Structure 259] | inactive |  |  |  |
| COc1ccc(C(=O)N(Cc2cccs2)Cc2cccs2)c(O)c1 [Structure 103] |  | 15.8 µM | 106.72 |  |
| O=C1c2ccccc2NC(c2ccccc2O)N1Cc1ccccc1 (stereo not shown) [Structure 157] | inactive |  |  |  |
| COc1ccc(C2Nc3cccc(OC)c3C(=O)N2Cc2ccccc2)cc1COc1ccc(NC(C)=O)cc1 (stereo not shown) [Structure 274] |  | 20 µM | 28.00 |  |
| CC(=O)Nc1ccc(OCc2cccc(-c3nc4ccccc4c(=O)n3Cc3ccco3)c2)cc1 [Structure 159] | inactive |  |  |  |
| COc1ccc(C2N(Cc3ccccc3)C(=O)c3ccccc3N2C)cc1COc1ccc(NC(C)=O)cc1 (stereo not shown) [Structure 84] |  | 7.94 µM | 47.53 |  |
| COc1ccc(C(=O)N(Cc2ccccc2)Cc2ccccc2)c(O)c1 [Structure 114] |  | 25.1 µM | 51.15 |  |
| COc1ccc(C2Nc3ccccc3C(=O)N2Cc2ccco2)cc1COc1ccc(NC(C)=O)cc1 (stereo not shown) [Structure 34] |  | 15.8 µM | 122.30 |  |
| COc1ccc(C2Nc3ccccc3C(=O)N2CC(C)(C)C)cc1COc1ccc(NC(C)=O)cc1 (stereo not shown) [Structure 276] |  | 25.1 µM | 32.00 |  |
| O=C1c2ccccc2NC(c2ccccc2O)N1Cc1ccccc1 (stereo not shown) [Structure 180] | inactive |  |  |  |
| COc1ccc(C2Nc3ccccc3C(=O)N2Cc2cccc(-c3ccccc3)c2)cc1COc1ccc(NC(C)=O)cc1 (stereo not shown) [Structure 13] |  | 2.24 µM | 103.29 |  |
| COc1ccc(C2Nc3ccccc3C(=O)N2Cc2ccccc2)cc1COc1ccc(NC(C)=O)cc1 (stereo not shown) [Structure 227] | inactive |  |  |  |
| COc1ccc(CN(Cc2ccccc2)C(=O)c2ccccc2N)cc1COc1ccc(NC(C)=O)cc1 [Structure 100] |  | 35.5 µM | 190.35 |  |
| COc1ccc(C2Nc3ccc(NC(C)=O)cc3C(=O)N2Cc2ccccc2)cc1COc1ccc(NC(C)=O)cc1 (stereo not shown) [Structure 32] |  | 15.8 µM | 137.62 |  |
| COc1ccc(CN(Cc2ccccc2)C(=O)c2ccc(O)cc2)cc1COc1ccc(NC(C)=O)cc1 [Structure 104] |  | 39.8 µM | 122.31 |  |

| Compound | AC50 (HTRF cAMP) | AC50 (HTRF cAMP, read-out: AC50) | Maximum Activity compared to TSH | further results |
| --- | --- | --- | --- | --- |
| COc1ccc(-c2nc3cccc(OC)c3c(=O)n2Cc2ccccc2)cc1COc1ccc(NC(C)=O)cc1 [Structure 218] |  | 39.8 µM |  | Emax: 38% |
| COc1ccc(-c2nc3ccccc3c(=O)n2Cc2ccccc2)cc1COc1ccc(NC(C)=O)cc1 [Structure 17] |  | 10 µM | 93.46 |  |
| COc1ccc(C(=O)N(Cc2ccccc2)Cc2cccs2)c(O)c1 [Structure 93] |  | 28.2 µM | 111.66 |  |
| COc1ccc(-c2nc3ccc(NC(C)=O)cc3c(=O)n2Cc2ccccc2)cc1COc1ccc(NC(C)=O)cc1 [Structure 191] | inactive |  |  |  |
| COc1ccc(C2Nc3ccccc3C(=O)N2Cc2ccco2)cc1COc1ccc([N+](=O)[O-])cc1 (stereo not shown) [Structure 245] | inactive |  |  |  |
| COc1ccc(C2Nc3ccccc3C(=O)N2Cc2ccncc2)cc1COc1ccc(NC(C)=O)cc1 (stereo not shown) [Structure 125] |  | 39.8 µM |  | Emax: 56.4% |
| COc1ccc(CN(Cc2ccccc2)C(=O)c2ccccc2O)cc1 [Structure 169] |  | 50.1 µM |  | Emax: 34% |
| COc1ccc(-c2nc3ccc(NC(=O)CO)cc3c(=O)n2Cc2cccc(Cl)c2)cc1COc1ccc(NC(C)=O)cc1 [Structure 292] | inactive |  |  |  |
| COc1ccc(-c2nc3ccccc3c(=O)n2Cc2ccco2)cc1COc1ccc(NC(C)=O)cc1 [Structure 47] |  | 25.1 µM | 165.16 |  |
| COc1ccc(C2Nc3ccc(NC(=O)CO)cc3C(=O)N2Cc2cccc(Cl)c2)cc1COc1ccc(NC(C)=O)cc1 (stereo not shown) [Structure 36] |  | 5.62 µM |  | Emax: 115% |
| COc1ccc(C2N(Cc3ccccc3)C(=O)c3ccccc3N2C)cc1COc1ccc(NC(C)=O)cc1 (stereo not shown) [Structure 267] |  | 7.94 µM | 24.50 |  |
| COc1ccc(C2Nc3ccccc3CN2Cc2ccco2)cc1COc1cccc(NC(C)=O)c1 (stereo not shown) [Structure 150] | inactive |  |  |  |
| COc1ccc(C2Nc3ccccc3C(=O)N2Cc2cccc(Cl)c2)cc1COc1ccc(NC(C)=O)cc1 (stereo not shown) [Structure 44] |  | 7.08 µM | 105.58 |  |
| COc1ccc(C2Nc3cccc(OC)c3C(=O)N2Cc2ccccc2)cc1COc1ccc(NC(C)=O)cc1 (stereo not shown) [Structure 235] | inactive |  |  |  |
| COc1ccc(-c2nc3ccccc3n2Cc2ccccc2)cc1COc1ccc(NC(C)=O)cc1 [Structure 179] | inactive |  |  |  |
| COc1ccc(C(=O)N(Cc2ccccc2)Cc2ccc(OC)c(COc3ccc(NC(C)=O)cc3)c2)cc1 [Structure 15] |  | 12.6 µM |  | Emax: 123% |
| COc1ccc(C2Nc3ccccc3C(=O)N2Cc2ccco2)cc1COc1ccc(N)cc1 (stereo not shown) [Structure 282] | inactive |  |  |  |
| COc1ccc(CN(Cc2ccccc2)C(=O)c2ccccc2O)cc1COc1ccc(NC(C)=O)cc1 [Structure 65] |  | 14.1 µM |  | Emax: 51.6% |
| COc1ccc(C2Nc3ccccc3C(=O)N2Cc2cccc3ccccc23)cc1COc1ccc(NC(C)=O)cc1 (stereo not shown) [Structure 288] |  | 2.24 µM | 20.50 |  |
| COc1ccc(CN(Cc2ccccc2)C(=O)c2cccc(C#N)c2)cc1COc1ccc(NC(C)=O)cc1 [Structure 71] |  | 7.94 µM | 44.19 |  |
